Where two headings read alike, the source gives them in different places.

Here are results for 20 compounds from patent publication US8063055B2, “Substituted pyridone compounds and methods of use” (Amgen Inc., priority 2007, dated 2011).

Test [1] deals with SCF-stimulated UT-7 cells. The conditions noted are these: Homo sapiens.
Description: SCF and GM-CSF Stimulated UT7 Proliferation/Survival Assay:
The purpose of this assay is to test the general anti-proliferative/cytotoxic effect of small molecule compounds on SCF or GM-CSF-stimulated UT-7 cells. Preventing SCF stimulated proliferation/survival is consistent with an on-mechanism effect whereas inhibition of GM-CSF driven proliferation/survival is indicative of off-target effects. UT-7 is a factor dependent human megakaryoblastic leukemia cell line that can be grown in either IL-3, GM-CSF, EPO or SCF (these cells have been confirmed to carry wild type c-kit receptor). Cells are maintained in growth media (IMDM, 10% HI-FBS, 1×PGS, 1 ng/mL GM-CSF). […] Small molecule compounds are first diluted in 100% DMSO, then diluted 1:4 in RT assay media. […] The treated cells are incubated in a 37° C. humidified incubator with 5% CO2 for 3 days. The amount of ATP is then measured as a surrogate marker for cell viability. […] The amount of SCF or GM-CSF stimulated viable cells in the presence of compound compared with in the presence of vehicle alone (HI control) is calculated using the formula: % control (POC)=(cpd−average LO)/(average HI−average LO)*100. Data (consisting of POC and inhibitor concentration in μM) is fitted to a 4-parameter equation (y=A+((B−A)/(1+((x/C)^D))), where A is the minimum y (POC) value, B is the maximum y (POC), C is the x (cpd concentration) at the point of inflection and D is the slope factor) using a Levenburg-Marquardt non-linear regression algorithm.
The target in the next test is T1, c-kit kinase enzyme (Homo sapiens, UniProt P10721).
T1 construct: (catalytic domain, N-terminal GST tagged, unphosphorylated)
In words: C-kit Homogeneous Time Resolved Fluorescent (HTRF) kinase assay. It is filed as biochemical. Conditions: c-kit catalytic domain, biotinylated Her-2 peptide substrate, ATP.

Where [2] appears, read: UT7, 72 h, read-out: UT7 Proliferation cell assay data.
Setting [3] is: read-out: HTRF Fret enzyme assay data.
Setting [4] is: UT7, read-out: average IC50 value in the SCF stimulated UT7 proliferation and survival assay.

T1 sequence (P10721 589-937 limits assumed): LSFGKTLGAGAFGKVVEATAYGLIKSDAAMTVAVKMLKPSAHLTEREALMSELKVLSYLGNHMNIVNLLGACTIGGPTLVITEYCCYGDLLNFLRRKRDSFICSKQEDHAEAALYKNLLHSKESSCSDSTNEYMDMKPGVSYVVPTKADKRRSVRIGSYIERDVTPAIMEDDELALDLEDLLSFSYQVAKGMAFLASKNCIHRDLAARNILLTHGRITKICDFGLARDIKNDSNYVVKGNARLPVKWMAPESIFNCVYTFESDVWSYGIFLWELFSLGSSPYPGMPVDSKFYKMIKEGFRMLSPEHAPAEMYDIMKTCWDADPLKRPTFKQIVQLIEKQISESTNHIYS

As to `CCOC(=O)c1ccc(-n2ccc(C)c(-c3ccc4nc(N)ncc4c3)c2=O)cc1` [Example 29, ethyl 4-(3-(2-aminoquinazolin-6-yl)-4-methyl-2-oxopyridin-1(2H)-yl)benzoate], the IC50 in test [1] (setting [2]) is 66 nM; on c-kit kinase enzyme (setting [3]), 17 nM.

Regarding `Cc1ccn(-c2ccc(C(F)(F)F)cc2)c(=O)c1-c1ccc2nc(N)ncc2c1` [Example 30, 3-(2-aminoquinazolin-6-yl)-4-methyl-1-(4-(trifluoromethyl)phenyl)pyridin-2(1H)-one], the IC50 amounted to 18 nM in test [1] (setting [2]) and 8 nM on c-kit kinase enzyme (HTRF Fret enzyme assay data).

For `Cc1ccn(-c2ccc(Cl)cc2)c(=O)c1-c1ccc2nc(N)ncc2c1` [Example 32, 3-(2-aminoquinazolin-6-yl)-1-(4-chlorophenyl)-4-methylpyridin-2(1H)-one], the IC50 in test [1] (setting [2]) was determined as 14 nM; at c-kit kinase enzyme (setting [3]), 20 nM.

As for `Cc1ccn(-c2ccc(F)cc2)c(=O)c1-c1ccc2nc(N)ncc2c1` [Example 33, 3-(2-aminoquinazolin-6-yl)-1-(4-fluorophenyl)-4-methylpyridin-2(1H)-one], the IC50 in test [1] (setting [2]) turned out to be 107 nM; on c-kit kinase enzyme (HTRF Fret enzyme assay data), 63 nM.

In the case of `Cc1ccn(-c2ccc(N3CCOCC3)cc2)c(=O)c1-c1ccc2nc(N)ncc2c1` [Example 34, 3-(2-aminoquinazolin-6-yl)-4-methyl-1-(4-morpholinophenyl)pyridin-2(1H)-one], the IC50 in test [1] (setting [2]) was 72 nM; on c-kit kinase enzyme (setting [3]) it was 13 nM.

For `Cc1ccn(-c2ccc(CN3CCOCC3)cc2)c(=O)c1-c1ccc2nc(N)ncc2c1` [Example 35, 3-(2-aminoquinazolin-6-yl)-4-methyl-1-(4-(morpholinomethyl)phenyl)pyridin-2(1H)-one], the IC50 came out at 200 nM in test [1] (setting [2]) and 31 nM against c-kit kinase enzyme (HTRF Fret enzyme assay data).

For `Cc1ccn(-c2ccc(-n3cccn3)cc2)c(=O)c1-c1ccc2nc(N)ncc2c1` [Example 38, 1-(4-(1H-pyrazol-1-yl)phenyl)-3-(2-aminoquinazolin-6-yl)-4-methylpyridin-2(1H)-one], the IC50 in test [1] (setting [2]) is 18 nM; at c-kit kinase enzyme (setting [3]), 10 nM.

For `Cc1ccn(-c2ccc(F)c(F)c2)c(=O)c1-c1ccc2nc(N)ncc2c1` [Example 39, 3-(2-aminoquinazolin-6-yl)-1-(3,4-difluorophenyl)-4-methylpyridin-2(1H)-one], the IC50 in test [1] (setting [2]) amounted to 63 nM; against c-kit kinase enzyme (HTRF Fret enzyme assay data) it was 48 nM.

Regarding `Cc1ccn(-c2ccc(Cl)c(Cl)c2)c(=O)c1-c1ccc2nc(N)ncc2c1` [Example 40, 3-(2-aminoquinazolin-6-yl)-1-(3,4-dichlorophenyl)-4-methylpyridin-2(1H)-one], the IC50 in test [1] (setting [2]) amounted to 18 nM; against c-kit kinase enzyme (HTRF Fret enzyme assay data) it was 20 nM.

With `Cc1ccc(-n2ccc(C)c(-c3ccc4nc(N)ncc4c3)c2=O)cc1Cl` [Example 41, 3-(2-aminoquinazolin-6-yl)-1-(3-chloro-4-methylphenyl)-4-methylpyridin-2(1H)-one], the values for the IC50 (in test [1] (setting [2]); at c-kit kinase enzyme (HTRF Fret enzyme assay data)) were 12 nM and 8.21 nM, respectively.

As to `Cc1cc(-n2ccc(C)c(-c3ccc4nc(N)ncc4c3)c2=O)ccc1F` [Example 42, 3-(2-aminoquinazolin-6-yl)-1-(4-fluoro-3-methylphenyl)-4-methylpyridin-2(1H)-one], the IC50 was found to be 18 nM in test [1] (setting [2]) and 14 nM at c-kit kinase enzyme (setting [3]).

Consider `Cc1ccn(-c2ccc(F)c(C(F)(F)F)c2)c(=O)c1-c1ccc2nc(N)ncc2c1` [Example 43, 3-(2-aminoquinazolin-6-yl)-1-(4-fluoro-3-(trifluoromethyl)phenyl)-4-methylpyridin-2(1H)-one], for which the IC50 came to 41 nM in test [1] (setting [2]) and 21.2 nM at c-kit kinase enzyme (HTRF Fret enzyme assay data).

Consider `Cc1ccn(-c2ccc(F)c(Cl)c2)c(=O)c1-c1ccc2nc(N)ncc2c1` [Example 45, 3-(2-aminoquinazolin-6-yl)-1-(3-chloro-4-fluorophenyl)-4-methylpyridin-2(1H)-one], for which the IC50 is 40 nM in test [1] (setting [2]) and 98.9 nM at c-kit kinase enzyme (HTRF Fret enzyme assay data).

Take `Cc1ccn(-c2cc(Cl)cc(Cl)c2)c(=O)c1-c1ccc2nc(N)ncc2c1` [Example 46, 3-(2-aminoquinazolin-6-yl)-1-(3,5-dichlorophenyl)-4-methylpyridin-2(1H)-one]: the IC50 in test [1] (setting [2]) worked out at 35 nM; against c-kit kinase enzyme (HTRF Fret enzyme assay data), 44 nM.

In the case of `Cc1ccn(CCC2CCCC2)c(=O)c1-c1ccc2nc(N)ncc2c1` [Example 52, 3-(2-aminoquinazolin-6-yl)-1-(2-cyclopentylethyl)-4-methylpyridin-2(1H)-one], the IC50 in test [1] (setting [2]) was 24 nM; in test [1] (setting [4]), not above 1000 nM; against c-kit kinase enzyme (HTRF Fret enzyme assay data), 0.818 nM.

For the compound `CC(C)=CCn1ccc(C)c(-c2ccc3nc(N)ncc3c2)c1=O` [Example 54, 3-(2-aminoquinazolin-6-yl)-4-methyl-1-(3-methylbut-2-enyl)pyridin-2(1H)-one], the IC50 was 12 nM in test [1] (setting [2]), not above 1000 nM in test [1] (setting [4]) and 23.9 nM against c-kit kinase enzyme (HTRF Fret enzyme assay data).

Turning to `Cc1ccn(CCC(C)(C)C)c(=O)c1-c1ccc2nc(N)ncc2c1` [Example 57, 3-(2-aminoquinazolin-6-yl)-1-(3,3-dimethylbutyl)-4-methylpyridin-2(1H)-one], the IC50 in test [1] (setting [2]) stood at 43 nM; on c-kit kinase enzyme (HTRF Fret enzyme assay data), 16.3 nM.

As for `CCC(C)CCn1ccc(C)c(-c2ccc3nc(N)ncc3c2)c1=O` (stereo not shown) [Example 58, 3-(2-aminoquinazolin-6-yl)-4-methyl-1-(3-methylpentyl)pyridin-2(1H)-one], the IC50 in test [1] (setting [2]) turned out to be 9 nM; on c-kit kinase enzyme (HTRF Fret enzyme assay data), 2.51 nM.

For the compound `Cc1ccn(CCC2CC2)c(=O)c1-c1ccc2nc(N)ncc2c1` [Example 59, 3-(2-aminoquinazolin-6-yl)-1-(2-cyclopropylethyl)-4-methylpyridin-2(1H)-one], the IC50 in test [1] (setting [2]) turned out to be 28 nM; on c-kit kinase enzyme (HTRF Fret enzyme assay data), 78.9 nM.

Consider `Cc1ccn(CCCC(C)C)c(=O)c1-c1ccc2nc(N)ncc2c1` [Example 61, 3-(2-aminoquinazolin-6-yl)-4-methyl-1-(4-methylpentyl)pyridin-2(1H)-one], for which the IC50 in test [1] (setting [2]) is 4 nM; in test [1] (setting [4]), not above 1000 nM; against c-kit kinase enzyme (HTRF Fret enzyme assay data) it was 1.12 nM.
